From patent US20080261911A1, “Uses of diphenyl/diphenylamine carboxylic acids” (priority 2006, published 2008)
“Also recorded” adds a separate entry of the source.

Legend:
VEGFR1 promoter = VEGFR1 promoter (pVEGFR1A-C) luciferase activity in Panc-1 cells; format: cell-based; conditions: 50 μM
Experimental: FIGS. 17A-17D show effects of tolfenamic acid on the VEGFR1 promoter and mRNA expression. Transfection with pVEGFR1-A (FIG. 17A), pVEGFR1-B (FIG. 17B), and pVEGFR1-C (FIG. 17C). Panc-1 cells were transfected with pVEGFR1 constructs, treated with DMSO, 50 μM ampiroxicam, or 50 μM tolfenamic acid, and luciferase activity was determined as described in Materials and Methods. […] Results are shown for a single experiment and similar data was obtained in replicate experiments. Cells are cultured in 6-well plates in 2 ml of DME/F12 medium supplemented with 5% fetal bovine serum. After 16-20 hr when cells are 50-60% confluent, reporter gene constructs are transfected using LIPOFECTAMINE™ reagent (Invitrogen, Carlsbad, Calif.). The effects of the selective non-steroidal anti-inflammatory drugs on transactivation are investigated in Panc1 and L3.6pl cells co-transfected with different VEGF constructs (500 ng). […] For proteasome inhibitor experiments, cells will be co-treated with 2 μM lactacystin, and for electrophoretic mobility shift assay (EMSA), nuclear extracts from Panc1 and L3.6pl cells are isolated as described, and aliquots will be stored at −80° C. until used (Abdelrahim et al, 2004; Abdelrahim et al, 2005).

VEGFR1 [1] = experiment: VEGFR1 protein expression in Panc-1 cells (Western blot, immunostaining); format: cell-based; conditions: 50 μM, 48 h
Experimental: FIGS. 14A-14D show tolfenamic acid decreases expression of Sp and VEGFR1 proteins in pancreatic cancer cells. Tolfenamic acid effects on Panc-1 cells (FIG. 14A and FIG. 14B), and L3.6pl cells (FIG. 14C and FIG. 14D). Cells were treated with DMSO, 50 μM tolfenamic acid, or 50 μM ampiroxicam for 48 h, and whole cell lysates were analyzed by Western blot analysis. […] FIGS. 16A-16D show the interaction of Sp proteins with VEGFR1 promoter sequences. […] The specific Sp protein bands and antibody supershifted complexes are indicated with arrows. Effects of tolfenamic acid on VEGFR1 and Egr-1 protein expression in Panc-1 cells (FIG. 16C), and L3.6pl cells (FIG. 16D). […] Cells are washed once with phosphate buffered saline PBS and collected by scraping in 200 μL of lysis buffer [50 mM HEPES, 0.5M sodium chloride, 1.5 mM magnesium chloride, 1 mM EGTA, 10% (v/v) glycerol, 1% Triton X-100, 5 μL/ml of Protease Inhibitor Cocktail (Sigma)]. The lysates from the cells are incubated on ice for 1 hr with intermittent vortexing followed by centrifugation at 40,000 g for 10 min at 4° C. […] Samples are electrophoresed, transferred to membranes, and proteins detected by incubation with polyclonal primary antibodies Sp1, Sp3, Sp4, HDAC, VEGF (a-20), c-Met, surviving, VEGF, cleaved PARP, and β-tubulin (H-235) followed by blotting with appropriate horseradish peroxidase-conjugated secondary antibody as previously described (Abdelrahim et al, 2004). After autoradiography, band intensities are determined by a scanning laser densitometer (Sharp Electronics Corporation, Mahwah, N.J.) using ZERO-D […] software (Scanalytics Corporation, Billerica, Mass.).

[2] = tested on: Sp protein binding to GC-rich VEGF promoter oligonucleotide; experiment: Gel mobility shift of nuclear extracts from Panc-1 cells with VEGF32P; format: cell-based; conditions: nuclear extracts of Panc-1 cells treated with 50 μM for 48 hr
Experimental: Vascular endothelial growth factor and VEGFR1 oligonucleotides are synthesized and annealed, and 5 pmol aliquots are 5′-end-labeled using T4 kinase and [y-^32P]ATP. After the reaction sample was incubated 20 min on ice, and antibodies against Sp1, Sp3, and Sp4 proteins are added and incubated another 20 min on ice. Protein-DNA complexes are resolved by 5% polyacrylamide gel electrophoresis as previously described (Abdelrahim et al, 2004; Abdelrahim et al, 2005, Abdelrahim et al, submitted 2005).
Panc1 or L3.6pl cells were treated with DMSO, 50 μM tolfenamic acid or 50 μM ampiroxicam for 48 hr. Nuclear extracts from these cells were isolated, incubated with VEGF^32P and analyzed in gel mobility shift assays.
The radiolabeled oligonucleotide contained a GC-rich region (−66 to −47) from the VEGF promoter that binds Sp proteins.

[3] = tested on: cleaved poly (ADP-ribose) polymerase (PARP) protein; experiment: Apoptosis: cleaved PARP in Panc-1 cells, Western blot; format: cell-based; conditions: 48 hr
Experimental: Cells are washed once with phosphate buffered saline PBS and collected by scraping in 200 μL of lysis buffer [50 mM HEPES, 0.5M sodium chloride, 1.5 mM magnesium chloride, 1 mM EGTA, 10% (v/v) glycerol, 1% Triton X-100, 5 μL/ml of Protease Inhibitor Cocktail (Sigma)]. The lysates from the cells are incubated on ice for 1 hr with intermittent vortexing followed by centrifugation at 40,000 g for 10 min at 4° C. Equal amounts of protein (60 μg) from each treatment group are diluted with loading buffer, boiled and loaded onto 10 and 12.5% SDS-polyacrylamide gel. […] Samples are electrophoresed, transferred to membranes, and proteins detected by incubation with polyclonal primary antibodies Sp1, Sp3, Sp4, HDAC, VEGF (a-20), c-Met, surviving, VEGF, cleaved PARP, and β-tubulin (H-235) followed by blotting with appropriate horseradish peroxidase-conjugated secondary antibody as previously described (Abdelrahim et al, 2004). After autoradiography, band intensities are determined by a scanning laser densitometer (Sharp Electronics Corporation, Mahwah, N.J.) using ZERO-D SCANALYTICS software (Scanalytics Corporation, Billerica, Mass.).

VEGFR1 [4] = experiment: VEGFR1 protein expression in L3.6pl cells (Western blot); format: cell-based, human; conditions: 50 μM, 48 h
Experimental: FIGS. 14A-14D show tolfenamic acid decreases expression of Sp and VEGFR1 proteins in pancreatic cancer cells. Tolfenamic acid effects on Panc-1 cells (FIG. 14A and FIG. 14B), and L3.6pl cells (FIG. 14C and FIG. 14D). Cells were treated with DMSO, 50 μM tolfenamic acid, or 50 μM ampiroxicam for 48 h, and whole cell lysates were analyzed by Western blot analysis. […] FIGS. 16A-16D show the interaction of Sp proteins with VEGFR1 promoter sequences. […] The specific Sp protein bands and antibody supershifted complexes are indicated with arrows. Effects of tolfenamic acid on VEGFR1 and Egr-1 protein expression in Panc-1 cells (FIG. 16C), and L3.6pl cells (FIG. 16D). […] Samples are electrophoresed, transferred to membranes, and proteins detected by incubation with polyclonal primary antibodies Sp1, Sp3, Sp4, HDAC, VEGF (a-20), c-Met, surviving, VEGF, cleaved PARP, and β-tubulin (H-235) followed by blotting with appropriate horseradish peroxidase-conjugated secondary antibody as previously described (Abdelrahim et al, 2004). After autoradiography, band intensities are determined by a scanning laser densitometer (Sharp Electronics Corporation, Mahwah, N.J.) using ZERO-D […] software (Scanalytics Corporation, Billerica, Mass.).

Panc-1 cells [5] = experiment: Cell proliferation assay, Panc-1 cells; format: cell-based; conditions: for growth of Panc-1 pancreatic cancer cells: different concentrations, 6 days, cell counting
Experimental: FIGS. 6A-6E show comparative effects of non-steroidal anti-inflammatory drugs on Panc-1 cell proliferation and Sp protein expression. Effects of tolfenamic acid (FIG. 6A), ampiroxicam (FIG. 6B), naproxen (FIG. 6C), and diclofenac sodium (FIG. 6D) on Panc-1 cell proliferation. Panc-1 cells were treated with different concentrations of non-steroidal anti-inflammatory drugs for 6 days, and the number of cells were determined on days 2, 4, and 6 by cell counting techniques. […] Panc-1 cells were treated with DMSO, 150 μM ampiroxicam, 150 μM naproxen, and 50 μM tolfenamic acid for 48 hr, and levels of Sp proteins and the cleaved poly (ADP-ribose) polymerase (PARP) protein were determined in whole cell lysates by Western blot analysis. […] Panc1, Panc28 and L3.6pl cells are seeded in DMEM/F12 media with 5% FBS and treated the next day with either vehicle (DMSO) or with the indicated compounds' concentrations. Cells are counted at the indicated times using a Z1™ COULTER COUNTER® cell counter. Each experiment is carried out in triplicate and results expressed as means ±SD for each determination.

[6] = tested on: Sp1, Sp3, and Sp4 proteins; experiment: Western blot of Sp1, Sp3 and Sp4 protein expression in Panc-1 cells; format: cell-based; conditions: for Sp1, Sp3, and Sp4 protein expression: Western blot, vs DMSO
Panc-1 cells [7] = experiment: Panc-1 cell migration (scratch) assay on collagen IV-coated plates; format: cell-based; conditions: 50 μM; for VEGF-B-induced cell migration: VEGF-B 50 ng/ml, 16 h
Experimental: (§1) Cells were pretreated with DMSO, 50 μM ampiroxicam, or 50 μM tolfenamic acid for 36 hr; VEGF-B (50 ng/ml) was added for 5 or 10 min, and whole cell lysates were obtained and analyzed by Western blot. Cell migration assay (FIG. 18C). […] Immunostaining of pancreatic tumors (FIG. 18D). Pancreatic tumors from athymic nude mice treated with solvent (control), gemcitabine (50 mg/kg), or tolfenamic acid (25 and 50 mg/kg) (Dick, 1996) were stained with VEGFR1 antibodies as described below and in a previous report (Dick, 1996).
Panc-1 cells were pretreated with DMSO, 50 μM ampiroxicam, or 50 μM tolfenamic acid for 48 h, and then were treated with VEGF-B (50 ng/ml) for 5 and 10 min. MAPK phosphorylation in the various treatment groups was then determined by western immunoblot analysis as described above. For migration assays, Panc-1 cells were seeded in triplicate in six-well collagen IV coated plates and then treated with the selected non-steroidal anti-inflammatory drugs for 24 h before the scratch was made. A scratch through the central axis of the plate was gently made using a sterile pipette tip. Cells were 70% confluent when the scratch was made. […] Results of this study were obtained at a 16 h time point and one plate was stained using DIFF QUIK (Dade Behring, Newark, Del.).
(§2) Previous studies have reported that activation of VEGFR1 by VEGF-B in pancreatic cancer cells results in enhanced phosphorylation of MAPK and increased cell migration and invasion. […] The importance of Sp protein in VEGFR1-dependent Panc-1 cell migration was determined using a cell migration assay on collagen IV-coated plates.

[8] = tested on: VEGF-B/VEGFR1 signaling (MAPK1/2 phosphorylation); experiment: VEGF-B activation of MAPK in Panc-1 cells; format: cell-based; conditions: 50 μM pretreatment for 36 hr, VEGF-B 5 or 10 min
Experimental: as §1
Panc-1 cells were pretreated with DMSO, 50 μM ampiroxicam, or 50 μM tolfenamic acid for 48 h, and then were treated with VEGF-B (50 ng/ml) for 5 and 10 min. MAPK phosphorylation in the various treatment groups was then determined by western immunoblot analysis as described above. For migration assays, Panc-1 cells were seeded in triplicate in six-well collagen IV coated plates and then treated with the selected non-steroidal anti-inflammatory drugs for 24 h before the scratch was made. […]
as §2

SMILES | luciferase activity, pVEGFR1A, pVEGFR1B and pVEGFR1C (VEGFR1 promoter) | VEGFR1 immunostaining (VEGFR1 [1]) | VEGFR1 protein levels, Western blot (VEGFR1 [1]) | Sp3 and Sp1/Sp4 retarded bands with VEGF32P [2] | poly (ADP-ribose) polymerase cleavage ([3]; 150 μM) | VEGFR1 protein levels, Western blot (VEGFR1 [4]) | growth of Panc-1 pancreatic cancer cells (Panc-1 cells [5]) | Sp1, Sp3, and Sp4 protein expression ([6]; 50 μM, 48 hr) | Sp protein degradation ([6]; 150 μM, 48 hr (concentration of comparable growth inhibition)) | VEGF-B-induced cell migration (Panc-1 cells [7]) | VEGF-B-induced phosphorylation of MAPK1/2 [8] | poly (ADP-ribose) polymerase cleavage ([3]; 50 μM) | relative potency in Panc-1 growth inhibition (Panc-1 cells [5]; compared with ampiroxicam and naproxen) | decrease in levels of Sp1, Sp3, and Sp4 proteins ([6]; 50 μM, 48 hr) | order of potency for decreased expression of Sp1, Sp3, and Sp4 proteins ([6]; 50 μM, 48 hr) | cell migration in the absence of VEGF-B (Panc-1 cells [7]; 16 h time point, DMSO set at 100%)
CCOC(=O)OC(C)OC1=C(C(=O)Nc2ccccn2)N(C)S(=O)(=O)c2ccccc21 (stereo not shown) [ampiroxicam] | but not DMSO or ampiroxicam, decreased luciferase activity | VEGFR1 immunostaining was observed | only the latter compound decreased VEGFR1 protein levels | retarded bands of similar intensity | only tolfenamic acid induced protein degradation and poly (ADP-ribose) polymerase cleavage | only the latter compound decreased VEGFR1 protein levels | decreased growth of Panc-1 pancreatic cancer cells | had no effect; also recorded: did not affect Sp protein levels | only tolfenamic acid induced protein degradation | inactive in all assays | increased phosphorylation of MAPK1/2 | – | – | – | – | –
Cc1c(Cl)cccc1Nc1ccccc1C(=O)O [tolfenamic acid] | decreased luciferase activity | decreased VEGFR1 staining | decreased VEGFR1 protein levels | retarded bands were decreased | – | decreased VEGFR1 protein levels | decreased growth of Panc-1 pancreatic cancer cells | decreased expression of Sp1, Sp3, and Sp4 proteins; also recorded: induced protein degradation | – | significantly inhibited VEGF-B-induced cell migration | decreased phospho-MARK1/2 | induced protein degradation and poly (ADP-ribose) polymerase cleavage | exhibited higher potencies | greater than 80% | tolfenamic acid>diclofenac˜diflunisal | only significantly inhibited by tolfenamic acid
